# Values joined by “and” are separate entries in the source; they are usually repeats but may differ in a detail not shown here. Equal entries are not always repeated. “Also recorded” adds a separate entry of the source. Where two headings read alike, the source gives them in different places.
# Legend:
# corneal buttons = tested on: corneal buttons; parameters: species or system rabbit
# Description: • 3 rabbits, (n=8 pairs of 3 mm biopsy punched corneal buttons) • Laser Treatments: • Fidelity II, 1069 nm, 450 mW • Focusing: Marker/spark around, not touching the tissue • Objective: ZEISS 40X, NA=0.1463 • Z: increments 20 μm, 5 layers (several intervals) • 1stlayer 15 μm below surface of focus sparking • XY: 10 μm zigzag grid, 3 mm radius circle • With ˜12 gram compression • Motor speed 2.6 mm/s, full circle treatments: ˜25*5 mins • Sample Preparation: • −3 mm biopsy punch (1BT) • not connected to IV system • Prior to LT: 30 mins in 20% w/w Dextran 500 in PBS • 30 mins in 20% w/w ribose in DPBS (˜1.7M) • Post LT: Trypan blue is used to mark endothelium side • Imaged on the same day in DPBS • Overnight storage in DPBS in 4C fridge • 3 hrs prior to indentation, in room temp PBS • Piuma nano-indentation: • For each cornea button, the average of up to 16 indentations are acquired as
# • 3 rabbits, (n=10 pairs of 3 mm biopsy punched corneal buttons) • 3 mm biopsy punch • not connected to IV system • Treatment Protocol-1 hr submerged in 20% w/v Ribose for all samples • 1 hr of UV-A lamp irradiation (control was not under UV) • Post Treatment Trypan blue is used to mark endothelium side • Imaged on the same day in DPBS • Overnight storage in DPBS in 4C fridge • 3 hrs prior to indentation, in room temp PBS • Piuma nano-indentation: • For each cornea button, the average of up to 16 indentations are acquired as representative modulus • The average of the representative modulus are presented in appended FIGS. 1-25.
# Nano-Indentation: The corneal buttons were stored in PBS in a 4C fridge overnight for hydration equilibrium. Indentations of 5 μm depth using 29-35 μm diameter spherical indenters were performed on the anterior surface of the cornea buttons to acquire 25-second load-relaxation curves. For each button, the average of up to 16 indentations was used as the representative result. The equilibrium modulus and the viscoelastic ratio, defined as equilibrium modulus over instantaneous modulus, were calculated and compared.
# Nanoindentation: Indentations were performed on the anterior surface of the cornea buttons. The equilibrium modulus E∞, instantaneous modulus Eo, and the viscoelastic ratio E∞/Eo, were calculated and compared.
# After overnight incubation in PBS at 4C to reach equilibrium hydration, corneal buttons in Group A were allowed to return to room temperature the next morning after the respective treatment days while glued to the bottom of a petri-dish with the anterior surface of the corneal button facing upward. A displacement-controlled indenter (Piuma, Optics 11, Amsterdam, The Netherlands) was used to perform micro-indentations on top of the sample surface submerged in PBS; for each sample, multiple tests were performed following an array of 16 equally spaced (4×4) contact points with a spacing of 100 μm to 150 μm, covering roughly a 0.4×0.4 mm^2 area at the center of each corneal button. A spherical glass probe with a 34 μm radius and 0.2 N/m stiffness was used for samples in Group 1A; another spherical glass probe with a 25.5 μm radius and 4.09 N/m stiffness was used for Group 1B, 1C, 1D, and 2C. The indentation process at each contact point was comprised of three consecutive steps of loading Piezo movement of 5 μm for 2 seconds, holding time of 5 s, and unloading for 2 seconds. The load-relaxation curves obtained after indenting each point were then processed using a viscoelastic model to obtain equilibrium modulus and viscoelastic ratio following a fitting algorithm developed by Oyen.
# corneal tissues = test: Multiphoton/confocal imaging: autofluorescence and second harmonic generation signal; parameters: species or system rabbit; conditions: anterior 100 μm
# Excerpt: • The grey value of the top 100 μm (11 Z-stacks) of the cornea button was summed; • The average of the grey value summations are presented in appended FIGS. 1-25. • […] • The average of the grey value summations and Representative images at ˜600*600*100 μm in x, y, z are presented in appended FIGS. 1-25. The autofluorescence and second harmonic generation (SHG) signals of the corneal tissues in Group A were investigated to reveal the presence of CxLs and structural changes in collagenous ECM after hydration equilibrium in PBS on the same night of individual treatment days. Imaging was performed with a Nikon TI Eclipse inverted microscope using a Ti: Sapphire laser Chameleon Ultra II at 860 nm as the light source and a Nikon Apo LWD 20× objective for focusing. The emission filter was set at the FITC channel (475-650 nm, peak 525 nm) for autofluorescence signal collection and at the DAPI channel (400-600 nm, peak at 457 nm) for SHG signal collection. The XY scanning area for each sample was 635 μm by 635 μm, and Z scanning was 100 μm deep with 10 μm increments (stack of 11 images per sample). The summation of the average grey value processed in Image J at each layer was used as the representative signal strength for each sample.
# [1] = 20% ribose 1 hr + 365 nm UVA lamp 1 hr
# [2] = 20% ribose + 400 nm femtosecond laser
# [3] = 20% ribose + 1069 nm femtosecond laser
# [4] = 20% ribose + 1069 nm femtosecond laser, listed as Ribose
# [5] = ribose + 365 nm UVA lamp, listed as Ribose
# [6] = ribose + 400 nm femtosecond laser
# [7] = ribose + 1069 nm femtosecond laser
# [8] = ribose + 1069 nm femtosecond laser, listed as Ribose
compound,measurement,setting,value
O=C[C@H](O)[C@H](O)[C@H](O)CO [ribose],instantaneous modulus change vs paired control,corneal buttons; [1],significantly increased
same,viscoelastic ratio change vs paired control (words),corneal buttons; [1],no change; also recorded: no significant E∞/Eo difference; also recorded: No significant changes; also recorded: None of the ROS-Glycation-CxL treatments produced a significant difference
same,equilibrium modulus change vs paired control (words),"corneal buttons; 20% ribose 1 hr + 365 nm UVA lamp 1 hr, coverslip",significantly increased; also recorded: significantly higher; also recorded: statistically significant differences
same,equilibrium modulus change vs paired control (words),"corneal buttons; 20% ribose 1 hr + 365 nm UVA lamp 1 hr, coverslip, listed as Ribose",significantly increased
same,viscoelastic ratio change vs paired control (words),"corneal buttons; 20% ribose 1 hr + 365 nm UVA lamp 1 hr, listed as Ribose",not significantly changed
same,equilibrium modulus change vs paired control (words),corneal buttons; [2],significantly higher; also recorded: statistically significant differences
same,viscoelastic ratio change vs paired control (words),corneal buttons; [2],No significant changes; also recorded: None of the ROS-Glycation-CxL treatments produced a significant difference
same,equilibrium modulus change vs paired control (words),corneal buttons; [3],significantly higher; also recorded: statistically significant differences
same,instantaneous modulus change vs paired control,corneal buttons; [3],significantly increased
same,viscoelastic ratio change vs paired control (words),corneal buttons; [3],No significant changes; also recorded: None of the ROS-Glycation-CxL treatments produced a significant difference
same,equilibrium modulus change vs paired control (words),corneal buttons; [4],significantly increased
same,viscoelastic ratio change vs paired control (words),corneal buttons; [4],not significantly changed
same,equilibrium modulus,"corneal buttons; Group 1A: 20% ribose PBS 1 hr, then 1069 nm femtosecond laser 450 mW, coverslip pressed",25 kPa and 26.7 kPa
same,equilibrium modulus,"corneal buttons; Group 1B: 20% ribose PBS 1 hr, then 400 nm femtosecond laser, coverslip pressed",60 kPa and 63.2 kPa
same,equilibrium modulus,"corneal buttons; Group 1C: 20% ribose PBS 1 hr, then 365 nm UVA lamp 1 hr, coverslip pressed",100 kPa and 115.3 kPa
same,"equilibrium modulus, 1.5 hr vs 3 hr irradiation",corneal buttons; Group 2C: ribose + 365 nm UVA lamp 1.5 hours vs 3 hours,no significant difference in mechanical properties; also recorded: no different in equilibrium modulus
same,"viscoelastic ratio, 3 hr vs 1.5 hr irradiation",corneal buttons; Group 2C: ribose + 365 nm UVA lamp 3 hours vs 1.5 hours,significantly higher viscoelastic ratio; also recorded: significant difference
same,"equilibrium modulus, fold of control's modulus",corneal buttons; ribose + 400 nm laser at 100 mW vs ribose-only control,~4.6 fold
same,"equilibrium modulus, fold of control's modulus",corneal buttons; ribose + 1060 nm laser at 450 mW vs ribose-only control,~3.8 fold
same,"equilibrium modulus, fold of paired control modulus",corneal buttons; ribose + one-hour 365 nm UVA lamp vs ribose-only control,~8.2 fold
same,equilibrium modulus,"corneal buttons; ribose-only paired controls, no light exposure",around 10 kPa
same,autofluorescence signal intensity change vs paired control (words),corneal tissues; ribose + 365 nm UVA lamp,increased significantly; also recorded: slightly increased; also recorded: Statistical significance
same,second harmonic generation signal intensity change vs paired control (words),corneal tissues; ribose + 365 nm UVA lamp,decreased significantly; also recorded: statistically significant decreases; also recorded: Statistical significance
same,autofluorescence signal intensity change vs paired control (words),corneal tissues; [5],increased
same,second harmonic generation signal intensity change vs paired control (words),corneal tissues; [5],decreased
same,autofluorescence signal intensity change vs paired control (words),corneal tissues; [6],increased significantly; also recorded: slightly increased; also recorded: Statistical significance
same,second harmonic generation signal intensity change vs paired control (words),corneal tissues; [6],decreased significantly; also recorded: statistically significant decreases; also recorded: Statistical significance
same,autofluorescence signal intensity change vs paired control (words),corneal tissues; [7],increased significantly; also recorded: slightly increased; also recorded: Statistical significance
same,second harmonic generation signal intensity change vs paired control (words),corneal tissues; [7],decreased significantly; also recorded: statistically significant decreases; also recorded: Statistical significance
same,autofluorescence signal intensity change vs paired control (words),corneal tissues; [8],increased
same,second harmonic generation signal intensity change vs paired control (words),corneal tissues; [8],decreased
